{"source": "paper PMC10252594", "about": "(Cancers, 2023)", "key": {"LAPC-4": {"system": "LAPC-4", "experiment": "PCa cell viability proliferation screening (MTS), LAPC-4", "type": "cell-based", "settings": "Homo sapiens, LAPC4, 72 h, LAPC-4, AR positive, three days", "procedure": "VCaP (4 × 10^4 cells/well) were seeded in 96-well plates in DMEM media supplemented with 10% fetal bovine serum (FBS), penicillin, streptomycin, and sodium pyruvate. 22Rv1 cells (2 × 10^3 cells/well) and LAPC-4 cells (6 × 10^3 cells/well) were seeded in 96-well plates in RPMI media supplemented with 10% FBS, penicillin, streptomycin, and sodium pyruvate. The cells were incubated at 37 °C in a 5% CO2 humidified atmosphere for 24 h before treatment with multiple concentrations of RM-581 dissolved in dimethyl sulfoxide (DMSO). The concentrations used were between 0.01 μM and 50 μM. Treatment lasted for 3 days for all the cell lines except VCaP cells, which were treated for 7 days due to slower proliferation rates. At the end of the assay, 20 μL of MTS (Cell Titer 96 Aqueous, Promega, Nepean, ON, Canada) were added to each well, and the mixture was incubated for 4 h at 37 °C. The plates were subsequently analyzed at 490 nm using a Tecan M-200 microplate reader (Männedorf, Switzerland)."}, "LAPC-4 cells [1]": {"system": "LAPC-4 cells", "experiment": "LAPC-4 cell viability proliferation and combination index assays (MTS, 6 days)", "type": "cell-based, human", "procedure": "LAPC-4 cells (1 × 10^4 cells/well) were seeded in triplicate in 96-well plates in IMDM (Iscove’s modified Dulbecco’s medium) (90 μL) supplemented (v/v) with 5% fetal FBS, 1% L-glutamine, 1% insulin, and 1% penicillin/streptomycin. The cells were incubated at 37 °C in a 5% CO2 humidified atmosphere for 24 h. […] After 6 days of incubation, the cell proliferation was determined by adding 10 µL of MTS followed by incubation at 37 °C for 4 h. Plates were then analyzed at 490 nm using a Tecan M-200 microplate reader (Männedorf, Switzerland). Using GraphPad Prism 7 software, the IC50 values were calculated. The values represent the average of two independent experiments performed in triplicate. According to the Chou–Talalay method and using the following formula, the CI (combination) was calculated. CI=(D)1/(DX)1+(D)2/(DX)2\nDenominators (DX)l and (DX)2 are the doses of individual drugs required to achieve a given effect level, and numerators (D)1 and (D)2 are the concentrations of each drug present in combination to trigger the same effect level. When the drugs interact additively, CI = 1, but a CI < 1 indicates a synergistic interaction, and a CI > 1 indicates an antagonistic effect."}, "LAPC-4 cells [2]": {"system": "LAPC-4 cells", "experiment": "Apoptosis characterization by flow cytometry (annexin-V/PI)", "type": "cell-based, human", "settings": "72 h", "procedure": "This experiment was performed with LAPC-4 cells (3 × 10^5) following the protocol previously reported for PC-3 cells. After the detection of annexin-V and propidium iodide fluorescence, dual parametric dot plots allowed us to calculate the percentage of each cell type: (1) non-apoptotic live cells (annexin-V-negative/PI-negative) in the lower left quadrant; (2) early apoptotic cells (annexin-V-positive/PI-negative) in the lower right quadrant; (3) late apoptotic cells (annexin-V-positive/PI-positive) in the upper right quadrant; and (4) necrotic cells (annexin-V-negative/PI-positive) in the upper left quadrant."}, "LAPC-4 cells [3]": {"system": "LAPC-4 cells", "experiment": "Gene expression study by qPCR", "type": "cell-based, human", "settings": "RM-581 5 µM or atorvastatin 10 µM, CTL fixed at 1.0", "procedure": "LAPC-4 cells (3 × 10^5) were treated with RM-581 (1, 2, and 5 µM) at different times (6, 18, 24, and 36 h) and the expression of various genes was determined as previously reported. Primer sequences used for the analysis of each gene are reported in Table S3 (Supplementary Materials)."}, "LAPC-4 cells [4]": {"system": "LAPC-4 cells", "experiment": "Total cholesterol in LAPC-4 cells (kit)", "type": "cell-based, human", "settings": "RM-581 2 μM or atorvastatin 10 μM; for Total cholesterol concentration in LAPC-4 cells: Table S2", "procedure": "A cholesterol quantification kit provided by Sigma-Aldrich (Catalog Number MAK043) was used following the manufacturer’s instructions to determine the concentration of total cholesterol, free cholesterol, and cholesteryl ester in samples. The cholesterol contents were measured in samples from two different protocols. […] Secondly, in tumor, liver, and plasma obtained at the end of the LAPC-4 xenograft experiment (control group and the group treated with RM-581 at 10 mg/kg/PO)."}, "DU-145": {"system": "DU-145", "parameters": "method as in PMID 34681843", "settings": "DU-145, AR negative, three days, MTS; cited from earlier work"}, "PC-3": {"system": "PC-3", "parameters": "method as in PMID 34681843", "settings": "PC-3, AR negative, three days, MTS; cited from earlier work"}}, "note": "“And” between values parts separate entries of the source, which are not always exact repeats. Equal entries are not always repeated. Where two headings read alike, the source gives them in different places. Marks after values point to notes of the source that are not given here.", "data": [{"smiles": "C#C[C@]1(O)CC[C@H]2[C@@H]3CCc4cc(OC)c(N5CCN(C(=O)[C@@H]6CCCN6C(=O)c6ccc7ccccc7n6)CC5)cc4[C@H]3CC[C@@]21C", "note": "[RM-581]", "values": [{"measurement": "IC50", "setting": "LAPC-4", "value": 560, "unit": "nM"}, {"measurement": "IC50", "setting": "LAPC-4 cells [1]; Homo sapiens, LAPC4, 144 h, LAPC-4, six days of treatment, read-out: IC50, single experiments (Figure 2A)", "value": 450, "unit": "nM"}, {"measurement": "IC50", "setting": "LAPC-4 cells [1]; Homo sapiens, LAPC4, 144 h, LAPC-4, six days, slightly different culture conditions, read-out: IC50, single experiments (Figure 3)", "value": 510, "unit": "nM"}, {"measurement": "IC50", "setting": "LAPC-4 cells [1]; Homo sapiens, LAPC4, 144 h, LAPC-4, six days, slightly different culture conditions, read-out: Mean IC50 (Figure 3)", "value": "570 ± 140", "unit": "nM"}, {"measurement": "IC50", "setting": "LAPC-4 cells [1]; Homo sapiens, LAPC4, 144 h, LAPC-4, six days, single drugs and 1:1 combinations, read-out: IC50 (Figure 2B)", "value": 560, "unit": "nM"}, {"measurement": "IC50", "setting": "LAPC-4 cells [1]; Homo sapiens, LAPC4, LAPC-4, read-out: IC50 in LAPC-4 cells, approximate summary value", "value": "~500", "unit": "nM"}, {"measurement": "IC50", "setting": "LAPC-4 cells [1]; LAPC-4, six days of treatment, read-out: IC50, single experiments (Figure 2A)", "value": "300 nM and 550 nM"}, {"measurement": "IC50", "setting": "LAPC-4 cells [1]; LAPC-4, six days, slightly different culture conditions, read-out: IC50, single experiments (Figure 3)", "value": "470 nM and 730 nM"}, {"measurement": "early and late apoptotic cells", "setting": "LAPC-4 cells [2]; 2 to 50 µM", "value": "significant and increasing proportion"}, {"measurement": "necrotic cells", "setting": "LAPC-4 cells [2]; 30 and 50 µM", "value": "very low and non-significant"}, {"measurement": "viable cells", "setting": "LAPC-4 cells [2]; 30 and 50 µM, dropped from 92%", "value": 20, "unit": "%"}, {"measurement": "ACAT1 mRNA expression", "setting": "LAPC-4 cells [3]; 6 h", "value": "0.7 *"}, {"measurement": "ACLY mRNA expression", "setting": "LAPC-4 cells [3]; 6 h", "value": 0.8}, {"measurement": "FASN mRNA expression", "setting": "LAPC-4 cells [3]; 6 h", "value": 1.0}, {"measurement": "HMGCR mRNA expression", "setting": "LAPC-4 cells [3]; 6 h", "value": "1.9 **"}, {"measurement": "HMGCS1 mRNA expression", "setting": "LAPC-4 cells [3]; 6 h", "value": "2.7 **"}, {"measurement": "LDLR mRNA expression", "setting": "LAPC-4 cells [3]; 6 h", "value": 1.4}, {"measurement": "MVD mRNA expression", "setting": "LAPC-4 cells [3]; 6 h", "value": "2.7 **"}, {"measurement": "MVK mRNA expression", "setting": "LAPC-4 cells [3]; 6 h", "value": 1.2}, {"measurement": "SCD1 mRNA expression", "setting": "LAPC-4 cells [3]; 6 h", "value": 0.7}, {"measurement": "ACAT1 mRNA expression", "setting": "LAPC-4 cells [3]; 18 h", "value": 0.9}, {"measurement": "ACLY mRNA expression", "setting": "LAPC-4 cells [3]; 18 h", "value": "0.4 **"}, {"measurement": "FASN mRNA expression", "setting": "LAPC-4 cells [3]; 18 h", "value": "0.5 **"}, {"measurement": "HMGCR mRNA expression", "setting": "LAPC-4 cells [3]; 18 h", "value": 1.2}, {"measurement": "HMGCS1 mRNA expression", "setting": "LAPC-4 cells [3]; 18 h", "value": "3.3 **"}, {"measurement": "LDLR mRNA expression", "setting": "LAPC-4 cells [3]; 18 h", "value": "1.8 **"}, {"measurement": "MVD mRNA expression", "setting": "LAPC-4 cells [3]; 18 h", "value": "1.8 **"}, {"measurement": "MVK mRNA expression", "setting": "LAPC-4 cells [3]; 18 h", "value": 1.6}, {"measurement": "SCD1 mRNA expression", "setting": "LAPC-4 cells [3]; 18 h", "value": 0.8}, {"measurement": "ACAT1 mRNA expression", "setting": "LAPC-4 cells [3]; 24 h", "value": 1.1}, {"measurement": "ACLY mRNA expression", "setting": "LAPC-4 cells [3]; 24 h", "value": 0.9}, {"measurement": "FASN mRNA expression", "setting": "LAPC-4 cells [3]; 24 h", "value": "0.6 *"}, {"measurement": "HMGCR mRNA expression", "setting": "LAPC-4 cells [3]; 24 h", "value": "2.6 **"}, {"measurement": "HMGCS1 mRNA expression", "setting": "LAPC-4 cells [3]; 24 h", "value": "2.4 **"}, {"measurement": "LDLR mRNA expression", "setting": "LAPC-4 cells [3]; 24 h", "value": "2.6 **"}, {"measurement": "MVD mRNA expression", "setting": "LAPC-4 cells [3]; 24 h", "value": "2.1 **"}, {"measurement": "MVK mRNA expression", "setting": "LAPC-4 cells [3]; 24 h", "value": 1.0}, {"measurement": "SCD1 mRNA expression", "setting": "LAPC-4 cells [3]; 24 h", "value": "2.5 **"}, {"measurement": "ACAT1 mRNA expression", "setting": "LAPC-4 cells [3]; 36 h", "value": 1.2}, {"measurement": "ACLY mRNA expression", "setting": "LAPC-4 cells [3]; 36 h", "value": 0.9}, {"measurement": "FASN mRNA expression", "setting": "LAPC-4 cells [3]; 36 h", "value": "0.6 *"}, {"measurement": "HMGCR mRNA expression", "setting": "LAPC-4 cells [3]; 36 h", "value": "2.5 **"}, {"measurement": "HMGCS1 mRNA expression", "setting": "LAPC-4 cells [3]; 36 h", "value": "2.0 **"}, {"measurement": "LDLR mRNA expression", "setting": "LAPC-4 cells [3]; 36 h", "value": "2.5 **"}, {"measurement": "MVD mRNA expression", "setting": "LAPC-4 cells [3]; 36 h", "value": "1.6 **"}, {"measurement": "MVK mRNA expression", "setting": "LAPC-4 cells [3]; 36 h", "value": 1.0}, {"measurement": "SCD1 mRNA expression", "setting": "LAPC-4 cells [3]; 36 h", "value": "3.5 **"}, {"measurement": "Total cholesterol in LAPC-4 cells vs untreated cells", "setting": "LAPC-4 cells [4]; 18, 36, or 72 h", "value": "did not show a significant difference"}, {"measurement": "Total cholesterol concentration in LAPC-4 cells", "setting": "LAPC-4 cells [4]; 18 h", "value": "68 ± 3"}, {"measurement": "Total cholesterol concentration in LAPC-4 cells", "setting": "LAPC-4 cells [4]; 36 h", "value": "69 ± 6"}, {"measurement": "Total cholesterol concentration in LAPC-4 cells", "setting": "LAPC-4 cells [4]; 72 h (first line, control 66 ± 2)", "value": "69 ± 4"}, {"measurement": "IC50", "setting": "DU-145", "value": 4400, "unit": "nM"}, {"measurement": "IC50", "setting": "PC-3", "value": 1200, "unit": "nM"}]}]}
